According to paper PMC5063900, “A phase 1 study of the safety, tolerability, pharmacokinetics, and pharmacodynamics of TAK-063, a selective PDE10A inhibitor” (Psychopharmacology, 2016):
Marks after values point to notes of the source that are not given here.

Assay: Plasma and urine pharmacokinetics after single oral dose under fasting conditions
Format: in vivo, human
Conditions: for AUC(0-inf) / C max / CL/F (oral clearance) / T 1/2 / Vz/F (volume of distribution) / T max: plasma
Protocol: Healthy Japanese and non-Japanese subjects between 18 and 55 years of age were recruited to participate in the study. Criteria for exclusion included prior treatment with any investigational compound within 30 days of the first TAK-063 dose, a positive test for drugs of abuse or nicotine, and an increased risk for suicide. Subjects were randomized into 1 of 6 dose cohorts (3, 10, 30, 100, 300, and 1000 mg), with each cohort containing 11 TAK-063 subjects (five Japanese, six non-Japanese) and three placebo subjects (one Japanese, two non-Japanese) receiving a single dose under fasting conditions. Following a washout period of 7 days, subjects in cohort 3 (100 mg) received the same dose (100 mg) but under fed conditions. Serial plasma and urine samples were collected from all subjects prior to dosing and at specific time points or intervals up to 96 h postdose. Pharmacokinetic samples were processed immediately and frozen at −20 °C as duplicate sets. Plasma concentrations of TAK-063 and its metabolite M-I were subsequently measured by validated liquid chromatography-tandem mass spectrometry with a validated range of 0.5 to 1000 ng/mL for both analytes. The PK parameters analyzed for TAK-063 and its metabolite M-I in plasma and urine included area under the plasma concentration-time curve from time 0 to infinity (AUC (0-inf)), maximum observed plasma concentration (C max), time to reach C max (T max), terminal elimination half-life (T 1/2), oral clearance (CL/F), volume of distribution (Vz/F), and renal clearance (CLr). Metabolite-to-parent ratios were estimated from C max and AUC (0-inf) data. All statistical analyses were generated using SAS Version 9.2 (SAS, Cary, NC, USA). The PK parameters were derived using non-compartmental methods with WinNonlin Enterprise Version 6.3 (Pharsight Corp., Mountain View, CA, USA). Frequency or descriptive statistics were used for summary of data. Where indicated, percent coefficient of variation was included in the summary of continuous data. All statistical tests were 2-tailed at α = 0.05 level for significance unless otherwise stated. A power model was used to evaluate dose proportionality by race for fasted subjects; in the event of no observed race effect, dose proportionality was assessed for all subjects. To evaluate the food effect, a paired t test was performed on T max and natural log-transformed C max, and AUCs. An ANCOVA model with baseline scores and race as covariates was used to assess the effects of TAK-063 on CNSVS domain scores.

[1] = Japanese subjects, TAK-063 3 mg (n = 5), arithmetic mean
[2] = Japanese subjects, TAK-063 10 mg (n = 5), arithmetic mean
[3] = Japanese subjects, TAK-063 30 mg (n = 5), arithmetic mean
[4] = Japanese subjects, TAK-063 100 mg (n = 4), arithmetic mean
[5] = Japanese subjects, TAK-063 100 mg (n = 5; TAK-063 n = 4), arithmetic mean
[6] = Japanese subjects, TAK-063 300 mg (n = 4), arithmetic mean
[7] = Japanese subjects, TAK-063 300 mg (n = 5; TAK-063 n = 4), arithmetic mean
[8] = Japanese subjects, TAK-063 1000 mg (n = 5), arithmetic mean
[9] = fasting, all subjects, TAK-063 3 mg (n = 11), arithmetic mean (% CV)
[10] = fasting, all subjects, TAK-063 3 mg (n = 11; M-I n = 10), arithmetic mean (% CV)
[11] = fasting, all subjects, TAK-063 10 mg (n = 11), arithmetic mean (% CV)
[12] = fasting, all subjects, TAK-063 30 mg (n = 11), arithmetic mean (% CV)
[13] = fasting, all subjects, TAK-063 100 mg (n = 9), arithmetic mean (% CV)
[14] = fasting, all subjects, TAK-063 100 mg (n = 11; TAK-063 n = 9), arithmetic mean (% CV)

COc1cn(-c2ccc(-n3cccn3)cc2F)nc(-c2ccnn2-c2ccccc2)c1=O [TAK-063]
Increase in AUC over the dose range (333-fold increase in dose (3 to 1000 mg), fasting): up to 26 fold | AUC(0-inf) [1]: 250.3 ng·h/mL | C max [1]: 16.1 ng/mL | CL/F (oral clearance) [1]: 12.5 L/h | T 1/2 [1]: 15.9 h | Vz/F (volume of distribution) [1]: 269.5 L | T max (Japanese subjects, TAK-063 3 mg (n = 5), median): 4.0 h | AUC(0-inf) [2]: 659.2 ng·h/mL | C max [2]: 30.2 ng/mL | CL/F (oral clearance) [2]: 15.8 L/h | T 1/2 [2]: 18.2 h | Vz/F (volume of distribution) [2]: 412.2 L | T max (Japanese subjects, TAK-063 10 mg (n = 5), median): 4.0 h | AUC(0-inf) [3]: 1027.3 ng·h/mL | C max [3]: 55.7 ng/mL | CL/F (oral clearance) [3]: 35.2 L/h | T 1/2 [3]: 17.8 h | Vz/F (volume of distribution) [3]: 889.4 L | T max (Japanese subjects, TAK-063 30 mg (n = 5), median): 4.0 h | AUC(0-inf) [4]: 1459.1 ng·h/mL | T 1/2 [4]: 20.7 h | C max (Japanese subjects, TAK-063 100 mg (n = 5), arithmetic mean): 89.9 ng/mL | T max (Japanese subjects, TAK-063 100 mg (n = 5), median): 3.0 h | CL/F (oral clearance) [5]: 75.8 L/h | Vz/F (volume of distribution) [5]: 2288.5 L | AUC(0-inf) [6]: 1636.0 ng·h/mL | T 1/2 [6]: 20.3 h | C max (Japanese subjects, TAK-063 300 mg (n = 5), arithmetic mean): 98.2 ng/mL | T max (Japanese subjects, TAK-063 300 mg (n = 5), median): 4.0 h | CL/F (oral clearance) [7]: 212.8 L/h | Vz/F (volume of distribution) [7]: 6409.8 L | AUC(0-inf) [8]: 4931.4 ng·h/mL | C max [8]: 264.0 ng/mL | CL/F (oral clearance) [8]: 233.8 L/h | T 1/2 [8]: 11.7 h | Vz/F (volume of distribution) [8]: 3953.4 L | T max (Japanese subjects, TAK-063 1000 mg (n = 5), median): 4.0 h | C max [9]: 11.8 (51) ng/mL | CL/F (oral clearance) [9]: 14.0 (48) L/h | Vz/F (volume of distribution) [9]: 407.0 (64) L | T max (fasting, all subjects, TAK-063 3 mg (n = 11), median (minimum, maximum)): 4.0 (2.0, 24.0) h | AUC(0-inf) [10]: 244.9 (32) ng·h/mL | T 1/2 [10]: 20.4 (48) h | AUC(0-inf) [11]: 576.7 (29) ng·h/mL | C max [11]: 26.7 (34) ng/mL | CL/F (oral clearance) [11]: 18.7 (30) L/h | T 1/2 [11]: 19.9 (18) h | Vz/F (volume of distribution) [11]: 529.5 (29) L | T max (fasting, all subjects, TAK-063 10 mg (n = 11), median (minimum, maximum)): 4.0 (2.0, 16.0) h | AUC(0-inf) [12]: 1003.6 (42) ng·h/mL | C max [12]: 46.9 (61) ng/mL | CL/F (oral clearance) [12]: 33.1 (27) L/h | T 1/2 [12]: 20.4 (30) h | Vz/F (volume of distribution) [12]: 954.8 (33) L | T max (fasting, all subjects, TAK-063 30 mg (n = 11), median (minimum, maximum)): 4.0 (3.0, 16.0) h | AUC(0-inf) [13]: 1406.8 (38)^c ng·h/mL | T 1/2 [13]: 24.6 (37)^c h | C max (fasting, all subjects, TAK-063 100 mg (n = 11), arithmetic mean (% CV)): 80.5 (48) ng/mL | T max (fasting, all subjects, TAK-063 100 mg (n = 11), median (minimum, maximum)): 3.0 (1.5, 6.0) h | CL/F (oral clearance) [14]: 80.3 (35)^c L/h | Vz/F (volume of distribution) [14]: 2802.2 (46)^c L | AUC(0-inf) (fasting, all subjects, TAK-063 300 mg (n = 8), arithmetic mean (% CV)): 1900.8 (39)^d ng·h/mL
